Each compound was assayed against T1, Kv7.2/7.3 (Homo sapiens, UniProt O43525+O43526) (assay: Kv7.2/7.3 Activation Assay (Thallium Flux Assay)). Conditions: hKV7.2/7.3 cell line; test compound at single concentration of 10 μM; fluorescence at 90 sec normalized to positive control (retigabine, 30 μM).
T1 construct: Kv7.2 tetracycline-induced, Kv7.3 constitutive
Type: cell-based
Procedure, shortened: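 Single-point activity at 10 μM (0.1% DMSO, HEPES-buffered saline, pH 7.4) was scored from fluorescence at 90 s relative to 30 μM retigabine. Categories were none <0.15, moderate 0.15-0.7 and high >0.7. Thallium influx after stimulus addition was followed with FluxOR II Green dye in hKv7.2/7.3 cells, Kv7.2 expressed under overnight tetracycline (10 ng/mL) induction.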

| SMILES | Kv7.2/7.3 Activity |
| --- | --- |
| Cn1nc(NC(=O)C2CC(F)(F)C2)c(C2CCC2)c1-c1ccc(C(C)(C)O)s1 [Compound 247, N-(4-cyclobutyl-5-(5-(2-hydroxypropan-2-yl)thiophen-2-yl)-1-methyl-1H-pyrazol-3-yl)-3,3-difluorocyclobutane-1-carboxamide] | − (“−” No Activity < 0.15) |
| Cn1nc(NC(=O)C(F)(F)C(C)(O)c2ccccc2)c(C2CCC2)c1-c1ccc(F)cc1 (centres unmarked) [Compound 117, N-(4-cyclobutyl-5-(4-fluorophenyl)-1-methyl-1H-pyrazol-3-yl)-2,2-difluoro-3-hydroxy-3-phenylbutanamide] | ++ (“++” High Activity ≥ 0.7) |
| Cn1nc(NC(=O)C2COC2)c(C2CCC2)c1-c1ccc(F)c(F)c1 [Compound 278, N-(4-cyclobutyl-5-(3,4-difluorophenyl)-1-methyl-1H-pyrazol-3-yl)oxetane-3-carboxamide] | − (“−” No Activity < 0.15) |
| CCn1nc(NC(=O)[C@H]2CC2(C)C)c(C2CC2)c1C [Compound 10, (S)-N-(4-cyclopropyl-1-ethyl-5-methyl-1H-pyrazol-3-yl)-2,2-dimethylcyclopropane-1-carboxamide] | + (“+” Moderate Activity 0.15-0.7) |
| Cc1c(C2CCC2)c(NC(=O)CC2(C(F)(F)F)CC2)nn1Cc1ccc(F)cc1 [Compound 95, N-(4-cyclobutyl-1-(4-fluorobenzyl)-5-methyl-1H-pyrazol-3-yl)-2-(1-(trifluoromethyl)cyclopropyl)acetamide] | − (“−” No Activity < 0.15) |
| Cn1nc(NC(=O)C2CC(F)(F)C2)c(C2CCC2)c1-c1ccc(F)c(F)c1 [Compound 192, N-(4-cyclobutyl-5-(3,4-difluorophenyl)-1-methyl-1H-pyrazol-3-yl)-3,3-difluorocyclobutane-1-carboxamide] | ++ (“++” High Activity ≥ 0.7) |
| Cn1nc(NC(=O)[C@H]2C[C@@H](C)C2)c(C2CCC2)c1-c1ccc(F)cc1 [Compound 122, (1S,3S)-N-(4-cyclobutyl-5-(4-fluorophenyl)-1-methyl-1H-pyrazol-3-yl)-3-methylcyclobutane-1-carboxamide] | ++ (“++” High Activity ≥ 0.7) |
| Cn1nc(NC(=O)NCC(C)(C)C)c(C2CCC2)c1C1CC(F)(F)C1 [Compound 294, 1-(4-cyclobutyl-5-(3,3-difluorocyclobutyl)-1-methyl-1H-pyrazol-3-yl)-3-neopentylurea] | ++ (“++” High Activity ≥ 0.7) |
| Cn1nc(NC(=O)c2ccccc2)c(C2CCC2)c1-c1ccc(OC(F)(F)F)cc1 [Compound 198, N-(4-cyclobutyl-1-methyl-5-(4-(trifluoromethoxy)phenyl)-1H-pyrazol-3-yl)benzamide] | + (“+” Moderate Activity 0.15-0.7) |
| CC(F)(F)C1(C(=O)Nc2nn(CC(F)(F)F)c(-c3ccc(F)cc3)c2C2CCC2)CC1 [Compound 141, N-(4-cyclobutyl-5-(4-fluorophenyl)-1-(2,2,2-trifluoroethyl)-1H-pyrazol-3-yl)-1-(1,1-difluoroethyl)cyclopropane-1-carboxamide] | − (“−” No Activity < 0.15) |
| Cn1nc(NC(=O)[C@@H]2CC2(F)F)c(C2CCC2)c1-c1ccc(Cl)s1 [Compound 155, (S)-N-(5-(5-chlorothiophen-2-yl)-4-cyclobutyl-1-methyl-1H-pyrazol-3-yl)-2,2-difluorocyclopropane-1-carboxamide] | ++ (“++” High Activity ≥ 0.7) |
| Cn1nc(NC(=O)[C@@H]2CC2(F)F)c(C2CCC2)c1-c1ccc(OC(F)(F)F)cc1 [Compound 174, (S)-N-(4-cyclobutyl-1-methyl-5-(4-(trifluoromethoxy)phenyl)-1H-pyrazol-3-yl)-2,2-difluorocyclopropane-1-carboxamide] | + (“+” Moderate Activity 0.15-0.7) |
| Cn1nc(NC(=O)C2(C(C)(F)F)CC2)c(C2CCC2)c1-c1ccc(F)cc1 [Compound 131, N-(4-cyclobutyl-5-(4-fluorophenyl)-1-methyl-1H-pyrazol-3-yl)-1-(1,1-difluoroethyl)cyclopropane-1-carboxamide] | ++ (“++” High Activity ≥ 0.7) |
| Cn1nc(NC(=O)C2(C(F)(F)F)CC2)c(C2CCC2)c1-c1ccccc1F [Compound 170, N-(4-cyclobutyl-5-(2-fluorophenyl)-1-methyl-1H-pyrazol-3-yl)-1-(trifluoromethyl)cyclopropane-1-carboxamide] | + (“+” Moderate Activity 0.15-0.7) |
| Cn1nc(NC(=O)C2CC(F)(F)C2)c(C2CCC2)c1-c1cnc(C(F)(F)F)s1 [Compound 195, N-(4-cyclobutyl-1-methyl-5-(2-(trifluoromethyl)thiazol-5-yl)-1H-pyrazol-3-yl)-3,3-difluorocyclobutane-1-carboxamide] | + (“+” Moderate Activity 0.15-0.7) |
| Cn1nc(NC(=O)C[C@H]2CC(F)(F)C2(F)F)c(C2CCC2)c1-c1ccc(C(C)(C)O)cc1 [Compound 34, (S)-N-(4-cyclobutyl-5-(4-(2-hydroxypropan-2-yl)phenyl)-1-methyl-1H-pyrazol-3-yl)-2-(2,2,3,3-tetrafluorocyclobutyl)acetamide] | + (“+” Moderate Activity 0.15-0.7) |
| Cn1nc(NC(=O)[C@@H]2CCC(F)(F)C2)c(C2CCC2)c1-c1ccc(F)cc1 [Compound 120, (R)-N-(4-cyclobutyl-5-(4-fluorophenyl)-1-methyl-1H-pyrazol-3-yl)-3,3-difluorocyclopentane-1-carboxamide] | ++ (“++” High Activity ≥ 0.7) |
| Cn1nc(NC(=O)C23CC(C(F)(F)F)(C2)C3)c(C2CCC2)c1-c1ccc(Cl)s1 [Compound 232, N-(5-(5-chlorothiophen-2-yl)-4-cyclobutyl-1-methyl-1H-pyrazol-3-yl)-3-(trifluoromethyl)bicyclo[1.1.1]pentane-1-carboxamide] | ++ (“++” High Activity ≥ 0.7) |
| Cn1nc(NC(=O)NCC(F)F)c(C2CCC2)c1C1CC(F)(F)C1 [Compound 296, 1-(4-cyclobutyl-5-(3,3-difluorocyclobutyl)-1-methyl-1H-pyrazol-3-yl)-3-(2,2-difluoroethyl)urea] | ++ (“++” High Activity ≥ 0.7) |
| Cn1nc(NC(=O)C2(C(F)(F)F)CC2)c(C2CCC2)c1-c1cccc(F)c1 [Compound 166, N-(4-cyclobutyl-5-(3-fluorophenyl)-1-methyl-1H-pyrazol-3-yl)-1-(trifluoromethyl)cyclopropane-1-carboxamide] | ++ (“++” High Activity ≥ 0.7) |
| Cn1nc(NC(=O)CC2(C(F)(F)F)CC2)c(C2CCC2)c1-c1ccc(F)cc1F [Compound 107, N-(4-cyclobutyl-5-(2,4-difluorophenyl)-1-methyl-1H-pyrazol-3-yl)-2-(1-(trifluoromethyl)cyclopropyl)acetamide] | ++ (“++” High Activity ≥ 0.7) |
| Cn1nc(NC(=O)CC2CC(F)(F)C2)c(C2CCC2)c1-c1ccc(F)cc1 [Compound 74, N-(4-cyclobutyl-5-(4-fluorophenyl)-1-methyl-1H-pyrazol-3-yl)-2-(3,3-difluorocyclobutyl)acetamide] | ++ (“++” High Activity ≥ 0.7) |
| Cn1nc(NC(=O)CC2COC2)c(C2CCC2)c1-c1cnc(C(F)(F)F)s1 [Compound 86, N-(4-cyclobutyl-1-methyl-5-(2-(trifluoromethyl)thiazol-5-yl)-1H-pyrazol-3-yl)-2-(oxetan-3-yl)acetamide] | − (“−” No Activity < 0.15) |
| Cc1c(C2CCC2)c(NC(=O)CC(C)(C)C(F)(F)F)nn1Cc1ccc(F)cc1 [Compound 94, N-(4-cyclobutyl-1-(4-fluorobenzyl)-5-methyl-1H-pyrazol-3-yl)-4,4,4-trifluoro-3,3-dimethylbutanamide] | − (“−” No Activity < 0.15) |
| Cn1nc(NC(=O)C2CC3(C2)CC(F)(F)C3)c(C2CCC2)c1-c1ccc(Cl)s1 [Compound 249, N-(5-(5-chlorothiophen-2-yl)-4-cyclobutyl-1-methyl-1H-pyrazol-3-yl)-6,6-difluorospiro[3.3]heptane-2-carboxamide] | ++ (“++” High Activity ≥ 0.7) |
| Cn1nc(NC(=O)C[C@@H]2CC(F)(F)C2(F)F)c(C2CCC2)c1-c1ccc(F)cn1 [Compound 254, (R)-N-(4-cyclobutyl-5-(5-fluoropyridin-2-yl)-1-methyl-1H-pyrazol-3-yl)-2-(2,2,3,3-tetrafluorocyclobutyl)acetamide] | ++ (“++” High Activity ≥ 0.7) |
| Cn1nc(NC(=O)CC2CC(F)(F)C2)c(C2CCC2)c1-c1ccc(Cl)s1 [Compound 218, N-(5-(5-chlorothiophen-2-yl)-4-cyclobutyl-1-methyl-1H-pyrazol-3-yl)-2-(3,3-difluorocyclobutyl)acetamide] | ++ (“++” High Activity ≥ 0.7) |
| Cn1nc(NC(=O)CC2(C(F)(F)F)CCC2)c(C2CCC2)c1-c1ccc(OC(F)(F)F)cc1 [Compound 82, N-(4-cyclobutyl-1-methyl-5-(4-(trifluoromethoxy)phenyl)-1H-pyrazol-3-yl)-2-(1-(trifluoromethyl)cyclobutyl)acetamide] | ++ (“++” High Activity ≥ 0.7) |
| Cn1nc(NC(=O)[C@H]2CC2(F)F)c(C2CC2)c1-c1ccc(F)cc1 [Compound 164, (R)-N-(4-cyclopropyl-5-(4-fluorophenyl)-1-methyl-1H-pyrazol-3-yl)-2,2-difluorocyclopropane-1-carboxamide] | ++ (“++” High Activity ≥ 0.7) |

— patent US20250171430A1, “PYRAZOLYL COMPOUNDS AS KV7 CHANNEL ACTIVATORS” (Biohaven Therapeutics Ltd., priority 2022, published 2025)
